# Data taken from patent US20070213291A1, “Therapeutically useful synthetic oligonucleotides” (priority 1999, published 2007).
# Experiments:
# Type in all cases: cell-based
# [1] = test system: Jurkat human leukemia T cells; experiment: Apoptosis by phosphatidylserine/annexin V-FITC flow cytometry; details: 50 μM sequence
# Method: (§1) The redistribution of phosphatidylserine in the plasma membrane during apoptosis was measured by flow cytometry using FITC-conjugated annexin V (BD Pharmingen, San Diego, Calif.). NuMA release into the supernatant was determined using a commercial ELISA kit (Oncogen/Calbiochem, Cambridge, Mass.).
# Jurkat human leukemia T cells were incubated with 50 μM of 3, 4, 5, 6 and 7 GT base sequences, a 5 base ACGT sequence, 6 base AG, GG, AGT and CGT sequences and a 7 base GG sequence. […]
# Jurkat human leukemia T cells were incubated with GT-rich or AC-rich sequences derived from the murA gene of Mycobacterium phlei (GenBank: Accession Number X99776). Inhibition of proliferation was measured by the reduction of MTT as in Example 3, cell cycle arrest was detected by flow cytometry using propidium iodide as in Example 21 and apoptosis was evaluated by flow cytometry using annexin-V-FITC as in Example 23.
# [2] = test system: Jurkat human leukemia T cells; experiment: Inhibition of Jurkat human leukemia T cell proliferation (MTT reduction); details: 100 μg/ml sequence, 48 h, 2.5×10^5 cells/ml
# Procedure, shortened: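 Read-out is MTT absorbance at 570 nm after 48 h. Sequences of 2 to 45 bases (A, C, G, T) tested at 100 μg/ml against untreated control, with 2.5×10^5 Jurkat cells/ml held at 37° C under 5% CO2.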
# rhesus monkey PBMCs = experiment: Cytokine production by rhesus monkey PBMC (ELISA); details: PBMC of 4 healthy rhesus monkeys, 100 μg/ml, 48 h
# Method: (§2) Unless stated otherwise, 1×10^6 cells were incubated with 100 μg/ml of each of the sequences tested for 48 h at 37° C. in 5% CO2. Production of cytokines IL-6, IL-10, IL-12, IL-1beta and TNF-alpha was determined in pg/ml in 100 μl of culture supernatant using the appropriate commercial ELISA (BioSource, Camarillo Calif.). The IL-12 ELISA measures both IL-12 p70 complex and free p40 subunit. Results are expressed as the “fold” (×) increase in cytokine production by treated cells compared to control cells.
# PBMCs were isolated from 4 healthy rhesus monkeys as in Example 35. PBMCs were incubated with 6 base GT, AGT, CGT, AG, CG ands GG sequences and production of the cytokines IL-6, IL-12 and TNF-alpha was determined (Table 42).
# chimpanzee PBMCs = experiment: Cytokine production by chimpanzee PBMC (ELISA); details: PBMC of 4 healthy chimpanzees, 100 μg/ml, 48 h
# Method: as §2
# PBMCs were isolated from 4 healthy chimpanzees as in Example 35. Chimpanzee PBMCs were incubated with 6 base GT, AGT, CGT, AG, CG and GG sequences and production of the cytokines IL-10, IL-12 and TNF-alpha was determined (Table 41).
# [3] = test system: Jurkat human leukemia T cells; experiment: NuMA release into supernatant (ELISA); details: Jurkat, 50 μM sequence
# Method: as §1
# Jurkat human leukemia T cells were incubated with 50 μM of 3, 4, 5, 6 and 7 GT base sequences, a 5 base ACGT sequence, 6 base AG, GG, AGT and CGT sequences and a 7 base GG sequence.
# Jurkat human leukemia T cells (1×10^6/ml) were incubated with 6 and 27 GT base sequences (Table 32). NuMA was determined as in Example 23.
# Jurkat human cell leukemia T cells were incubated for 24 h with 6 base GT SEQ ID NO:25, complementary 6 base AC SEQ ID NO:79, and 6 base GT SEQ ID NO:25+6 base AC SEQ ID NO:79. GT SEQ ID NO:25 and AC SEQ ID NO:79 were hybridized by mixing the sequences (1:1) and heating for 10 minutes at 65° C. As controls, GT SEQ ID NO:25 and AC SEQ ID NO:79 were heated for 10 minutes at 65° C. (Table 33). Apoptosis was evaluated as in Example 23.
# [4] = test system: human peripheral blood mononuclear cells; experiment: Cytokine production by human PBMC (ELISA); details: PBMC of 7 healthy humans, 100 μg/ml, 48 h
# Method: as §2
# Peripheral blood mononuclear cells (hereinafter, “PBMCs”) were isolated from 7 healthy humans by Ficoll-Hypaque (Amersham Pharmacia Biotech, Baie d'Urfée, Québec, Canada) by density gradient centrifugation of whole blood. PBMCs were incubated with 6 base GT, AGT, CGT, AG, CG and GG sequences and production of the cytokines IL-1beta, IL-6, IL-10 and IL-12 were determined.
# [5] = test system: THP-1 human acute monocytic leukemia cells; experiment: Cytokine production by THP-1 cells (ELISA); details: THP-1, 1×10^6 cells, 100 μg/ml, 48 h; for ↑ IL-12 (fold increase treated vs control cells): p70 complex and free p40
# Procedure, shortened: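 Read-out is fold increase in supernatant cytokine versus control cells, measured by ELISA (IL-12 ELISA counts p70 complex plus free p40). Unless noted, sequences were tested at 100 μg/ml on 1×10^6 cells, incubated 48 h, 37° C, 5% CO2.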
# [6] = test system: LNCaP human prostate cancer cells; experiment: Inhibition of LNCaP cell proliferation (MTT); details: 100 μg/ml, 48 h, 5×10^5 cells/ml
# Method: (§3) Cells were seeded in 6 (1 ml/well), 24 (0.5 ml/well) or 96 (0.1 ml/well) well flat-bottom microplates and were maintained at 37° C. in a 5% CO2 atmosphere. Unless stated otherwise, 2.5×10^5 cells/ml were incubated with 0 μg/ml (control) and 100 μg/ml (treated) of 2 to 45 base sequences containing A, C, G and T for 48 h.
# (§4) Cell proliferation was measured using dimethylthiazol-diphenyl-tetrazolium (MTT) reduction (Mosman et al. J. Immunol. Methods 65:55, 1983). MTT was measured at a wavelength of 570 nm using a multiplate spectrophotometer reader (ELX800, Bio-TEK Instruments Inc., Winooski, Vt.).
# LNCaP prostate cancer cells are a TGF-beta 1 receptor negative, […], metastatic human solid tumor model. LNCaP cells (5×10^5 cells/ml) were incubated with 6 base GT sequences (Table 9).
# [7] = test system: MCF-7 human breast cancer cells; experiment: Inhibition of MCF-7 cell proliferation (MTT); details: 100 μg/ml, 48 h, 5×10^5 cells/ml
# Method: as §3, §4
# MCF-7 human breast cancer cells are a caspase 3 negative, estrogen-dependent human solid tumor model. MCF-7 cells (5×10^5 cells/ml) were incubated with 3 and 6 base GT sequences (Table 7).
# [8] = test system: PC-3 human prostate cancer cells; experiment: Inhibition of PC-3 cell proliferation (MTT); details: 100 μg/ml, 48 h, 5×10^5 cells/ml
# Method: as §3, §4
# PC-3 prostate cancer cells are a p53 mutated, androgen-independent human solid tumor model. PC-3 cells (5×10^5 cells/ml) were incubated with 3 and 6 base GT sequences (Table 8).
sequence,measurement,setting,value
AAGTAA [SEQ ID NO:27],% of cells in apoptosis (positive for PS/A-V staining),[1],20%
same,% INHIBITION of Jurkat human leukemia T cell proliferation,[2],13%
same,IL-10 fold increase: mean +/− SD,rhesus monkey PBMCs,0.9 +/− 0.1 fold increase
same,IL-12 fold increase: mean +/− SD,rhesus monkey PBMCs,7.6 +/− 2.6 fold increase
same,TNF-alpha fold increase: mean +/− SD,rhesus monkey PBMCs,6.0 +/− 5.0 fold increase
same,IL-10 fold increase: mean +/− SD,chimpanzee PBMCs,2.1 +/− 1.1 fold increase
same,IL-12 fold increase: mean +/− SD,chimpanzee PBMCs,13.2 +/− 8.2 fold increase
same,TNF-alpha fold increase: mean +/− SD,chimpanzee PBMCs,7.9 +/− 3.9 fold increase
same,% NuMA released (treated vs untreated cells),[3],56%
same,IL-1 beta fold increase: mean +/− SD,[4],1.3 +/− 0.5 fold increase
same,IL-6 fold increase: mean +/− SD,[4],9.6 +/− 7.3 fold increase
same,IL-10 fold increase: mean +/− SD,[4],1.0 +/− 0.1 fold increase
same,IL-12 fold increase: mean +/− SD,[4],2.4 +/− 2.2 fold increase
same,↑ IL-6 (fold increase treated vs control cells),[5],12.8x
same,↑ IL-12 (fold increase treated vs control cells),[5],6.0x
CCGTCC [SEQ ID NO:28],% of cells in apoptosis (positive for PS/A-V staining),[1],6%
same,% INHIBITION of Jurkat human leukemia T cell proliferation,[2],11%
same,IL-10 fold increase: mean +/− SD,rhesus monkey PBMCs,1.1 +/− 0.2 fold increase
same,IL-12 fold increase: mean +/− SD,rhesus monkey PBMCs,10.1 +/− 3.7 fold increase
same,TNF-alpha fold increase: mean +/− SD,rhesus monkey PBMCs,14.2 +/− 3.7 fold increase
same,IL-10 fold increase: mean +/− SD,chimpanzee PBMCs,3.8 +/− 2.8 fold increase
same,IL-12 fold increase: mean +/− SD,chimpanzee PBMCs,13.3 +/− 8.4 fold increase
same,TNF-alpha fold increase: mean +/− SD,chimpanzee PBMCs,10.3 +/− 5.7 fold increase
same,% NuMA released (treated vs untreated cells),[3],0%
same,IL-1 beta fold increase: mean +/− SD,[4],2.1 +/− 1.8 fold increase
same,IL-6 fold increase: mean +/− SD,[4],10.4 +/− 13.0 fold increase
same,IL-10 fold increase: mean +/− SD,[4],1.0 +/− 0.1 fold increase
same,IL-12 fold increase: mean +/− SD,[4],5.9 +/− 10.7 fold increase
same,↑ IL-6 (fold increase treated vs control cells),[5],12.6x
same,↑ IL-12 (fold increase treated vs control cells),[5],3.8x
GGGCGG (unmodified DNA) [SEQ ID NO:46],% of cells in apoptosis (positive for PS/A-V staining),[1],16%
same,% INHIBITION of Jurkat human leukemia T cell proliferation,[2],23%
same,IL-10 fold increase: mean +/− SD,rhesus monkey PBMCs,1.2 +/− 0.2 fold increase
same,IL-12 fold increase: mean +/− SD,rhesus monkey PBMCs,11.0 +/− 4.4 fold increase
same,TNF-alpha fold increase: mean +/− SD,rhesus monkey PBMCs,16.8 +/− 4.1 fold increase
same,IL-10 fold increase: mean +/− SD,chimpanzee PBMCs,4.7 +/− 3.4 fold increase
same,IL-12 fold increase: mean +/− SD,chimpanzee PBMCs,15.8 +/− 10.4 fold increase
same,TNF-alpha fold increase: mean +/− SD,chimpanzee PBMCs,14.1 +/− 6.6 fold increase
same,% NuMA released (treated vs untreated cells),[3],11%
same,IL-1 beta fold increase: mean +/− SD,[4],1.2 +/− 0.3 fold increase
same,IL-6 fold increase: mean +/− SD,[4],15.8 +/− 16.2 fold increase
same,IL-10 fold increase: mean +/− SD,[4],1.0 +/− 0.1 fold increase
same,IL-12 fold increase: mean +/− SD,[4],3.0 +/− 3.8 fold increase
same,↑ IL-6 (fold increase treated vs control cells),[5],9.8x
same,↑ IL-12 (fold increase treated vs control cells),[5],2.3x
GGGGGG [SEQ ID NO:44],% of cells in apoptosis (positive for PS/A-V staining),[1],5%
same,% INHIBITION of Jurkat human leukemia T cell proliferation,[2],26%
same,IL-10 fold increase: mean +/− SD,rhesus monkey PBMCs,2.1 +/− 1.0 fold increase
same,IL-12 fold increase: mean +/− SD,rhesus monkey PBMCs,10.7 +/− 5.6 fold increase
same,TNF-alpha fold increase: mean +/− SD,rhesus monkey PBMCs,13.9 +/− 8.5 fold increase
same,IL-10 fold increase: mean +/− SD,chimpanzee PBMCs,11.2 +/− 9.1 fold increase
same,IL-12 fold increase: mean +/− SD,chimpanzee PBMCs,15.1 +/− 10.0 fold increase
same,TNF-alpha fold increase: mean +/− SD,chimpanzee PBMCs,13.8 +/− 6.5 fold increase
same,% NuMA released (treated vs untreated cells),[3],0%
same,IL-1 beta fold increase: mean +/− SD,[4],7.1 +/− 9.4 fold increase
same,IL-6 fold increase: mean +/− SD,[4],21.0 +/− 14.7 fold increase
same,IL-10 fold increase: mean +/− SD,[4],1.7 +/− 1.6 fold increase
same,IL-12 fold increase: mean +/− SD,[4],7.0 +/− 12.5 fold increase
same,↑ IL-6 (fold increase treated vs control cells),[5],15.1x
same,↑ IL-12 (fold increase treated vs control cells),[5],0.0x
GGTGGG [SEQ ID NO:24 phosphorothioate],% INHIBITION of Jurkat human leukemia T cell proliferation,[2],6%
same,% INHIBITION of LNCaP human prostate cancer cell proliferation,[6],−17%
same,↑ IL-12 (fold increase treated vs control cells),[5],−0.1x
same,% INHIBITION of MCF-7 human breast cancer cell proliferation,[7],12%
GTGTGT [SEQ ID NO:10 phosphorothioate],% INHIBITION of Jurkat human leukemia T cell proliferation,[2],0%
same,% INHIBITION of LNCaP human prostate cancer cell proliferation,[6],−20%
same,↑ IL-12 (fold increase treated vs control cells),[5],−0.2x
same,% INHIBITION of MCF-7 human breast cancer cell proliferation,[7],12%
TGT (chemistry not given here) [SEQ ID NO:7],% of cells in apoptosis (positive for PS/A-V staining),[1],10%
same,% INHIBITION of Jurkat human leukemia T cell proliferation,[2],22%
same,% INHIBITION of PC-3 human prostate cancer cell proliferation,[8],8%
same,% NuMA released (treated vs untreated cells),[3],35%
same,↑ IL-6 (fold increase treated vs control cells),[5],2.7x
same,% INHIBITION of MCF-7 human breast cancer cell proliferation,[7],−6%
TGTGTG [SEQ ID NO:9 phosphorothioate] (phosphorothioate backbone),% INHIBITION of Jurkat human leukemia T cell proliferation,[2],−17%
same,% INHIBITION of LNCaP human prostate cancer cell proliferation,[6],−16%
same,↑ IL-12 (fold increase treated vs control cells),[5],−0.1x
same,% INHIBITION of MCF-7 human breast cancer cell proliferation,[7],6%
TTGTTT [SEQ ID NO:26 phosphorothioate],% INHIBITION of Jurkat human leukemia T cell proliferation,[2],0%
same,% INHIBITION of LNCaP human prostate cancer cell proliferation,[6],−1%
same,↑ IL-12 (fold increase treated vs control cells),[5],−0.1x
same,% INHIBITION of MCF-7 human breast cancer cell proliferation,[7],6%
TTTGTT [SEQ ID NO:23 phosphorothioate] (phosphorothioate backbone),% INHIBITION of Jurkat human leukemia T cell proliferation,[2],4%
same,% INHIBITION of LNCaP human prostate cancer cell proliferation,[6],−11%
same,↑ IL-12 (fold increase treated vs control cells),[5],0.1x
same,% INHIBITION of MCF-7 human breast cancer cell proliferation,[7],8%
